From US20100278837A1, “Compositions And Methods For Reducing Cancer And Inflammation” (The Regents of the University of California, priority 2009, published 2010)

How the values were obtained:
[1] = tested on: LLC tumours; assay: Subcutaneous LLC tumour growth, inflammation and angiogenesis in treated mice; format: in vivo, C57BL/6 mice; conditions: daily dosing
Method: LLC cells were obtained from the American Type Culture Collection (ATCC) and Panc02 pancreatic ductal carcinoma cells were obtained from the NCI DCTDC Tumour Repository. The abdominal cavities of immunocompetent C57Bl6 mice and integrin α4Y991A knockin mice^30 were opened and the tails of the pancreas were exteriorized. One million Panc02 cells were injected into the pancreatic tail, the pancreas was placed back into the abdominal cavity and the incision was closed. Tumours were excised after 30 days. 5×10^5 LLC cells were injected subcutaneously or by intravenous tail vein injection into C57Bl6 or integrin α4Y991A mice. Tumours were excised at 7, 14 or 21 days, cryopreserved in O.C.T., lysed for RNA purification or collagenase-digested for flow cytometric analysis of CD11b and Gr1 expression. […] Tumours were harvested, weighed and further analyzed on day 8. […]
PI3-kinase γ inhibitor studies: C57BL/6 mice were subcutaneously implanted on d1 with 5×10^5 LLC or by intradermal injection with 5×10^5 B16 melanoma cells. […] Tumour volumes, weights and blood vessel densities, as well as myeloid cell densities were measured. […] Tumours were excised, weighed and analyzed after 3 weeks. […] Mice were sacrificed at 9 weeks of age and tumours were analyzed.

[2] = tested on: CD11b+ myeloid cells; assay: Adoptive transfer: arrest of pretreated CD11b+ myeloid cells in LLC tumours; format: in vivo; conditions: adoptively transferred into LLC tumour-bearing mice
Method: Alternatively, 5×10^6 CFSE labelled CD11b+ cells from C57BL/6, α4Y991A, and PI3-kinase γ−/− mice were injected intravenously into mice bearing subcutaneous (5×10^5) d14 LLC tumours. In other studies, CD11b+ cells from WT mice were treated for 1 h with 1 μM PI3-kinase α inhibitor (PI3K75), PI3-kinase β inhibitor (TGX221), PI3-kinase γ inhibitor (TG100-115) and an inert control or with 10 μM PLC inhibitor (U73122), geranylgeranyltransferase inhibitor (GGT2147) or farnesyltransferase inhibitor (FTI-277) and then injected intravenously into mice bearing subcutaneous (5×10^5) d14 LLC tumours.
In other studies, K, N and H Ras, Rap1, PI3Kα, PI3Kβ, PI3Kγ, PI3Kδ, integrin α4 and integrin αM were knocked down by siRNA transfection of CD11b+ cells as described above. 48 h later, cells were labeled with CFSE and injected into mice with d14 LLC tumours (1×10^6 cells). Fluorescent cells accumulating in tumours and spleens were quantified 2 h and 24 h later by excising tissues, preparing single cell suspensions and performing FACs analysis at 488 nm. No differences were observed between untreated and non-silencing siRNA treated cells.

[3] = tested on: CD11b+ myeloid cell adhesion to VCAM-1; assay: Chemoattractant-stimulated CD11b+ myeloid cell adhesion to VCAM-1 / endothelial cells (Example 9 adhesion assay); format: cell-based, mouse
Method: 1×10^5 calcein-AM labelled human CD11b+ cells isolated from buffy coats from the San Diego Blood Bank or murine CD11b+ cells isolated from naïve (non-tumour bearing) or tumour-bearing mice were incubated on HUVEC monolayers or on plastic plates coated with 5 μg/ml recombinant soluble VCAM-1 or ICAM-1 (R&D Systems) for 30 minutes at 37° C. with humidity in the presence of LLC Tumour Conditioned Medium (TCM) or DMEM containing 200 ng/ml SDF1α, IL1β, IL6, TNFα or VEGF-A (R&D Systems). (SDF-1α and IL-1β were initially titrated to determine the minimum dose required to achieve near maximal stimulation of adhesion). TCM was prepared by incubating LLC cells in serum-free media for 18 h and filtering through 0.22 μm filters. After washing three times with warmed medium, adherent cells were quantified using a plate fluorimeter (GeniosPro, TECAN).
In some adhesion assays, cells were also incubated in 25 μg/ml function-blocking anti-integrin α4β1 (rat anti-murine, PS2 or mouse anti-human, HP2/1, gifts from Biogen-Idec), rat-anti-αM (anti-CD11b, M1/70) and isotype control antibodies (rat IgG2κ or mouse IgG1) or with 0.1 nM-10 μM doses of the small molecule inhibitor of integrin α4, ELN476063 (IC50=10 nM), a gift from Elan^14.
Additionally, labelled cells were incubated with HUVEC and rsVCAM coated plates in the presence of […] or SDF-1α and 1-10 μM inhibitors: pan-PI3 kinase inhibitors ([…], wortmannin), PI3-kinase α inhibitors (PI3K75, PIK2alpha, PI103), PI3-kinase β inhibitor (TGX221), PI3-kinase γ inhibitors (TG100-115, AS605240, AS604850), inert control, PLC inhibitor (U73122), geranylgeranyltransferase (Rap1-selective) inhibitors (GGTI-2147 and GGTI-298) or farnesyltransferase (Ras-selective) inhibitor (FTI-277), Akt inhibitors (Inhibitor X and peptide 18), mTOR inhibitor (rapamycin), ROCK inhibitor (Y27632), MEK inhibitor (PD98059), p38 inhibitor (SB202190), tyrosine kinase inhibitor (genestein) and PKA inhibitors (H89, KT5720). LY294002, wortmannin, genestein, U73122, GGTI-2147, GGTI-298, FTI-277, Y27632, PD98059, SB202190, H89 and KT5720 were from Calbiochem. PIK2alpha, PI103, AS605240, AS604850 and TGX221 were from Echelon. TG100-115 was prepared as described^25-26. To titrate the effect of various signalling protein inhibitors on myeloid cell adhesion stimulated by IL-1β or SDF-1α, cells were incubated in 1 nm to 100 μM PI3-kinase inhibitors TG00020 (a pan-PI3-kinase inhibitor), PI3-kinase α inhibitor (PI3Kalpha2) PI3-kinase β inhibitor (TGX221), PI3-kinase γ inhibitors (TG100-115, AS605240), an inert chemically matched control, farnesyltrasnferase inhibitors and geranylgeranyltransferase inhibitors. IC50s for GGTI and FTI were 1 μM. […] Adherent GFP+ cells were automatically quantified using MetaMorph software (Molecular Devices Software).

SMILES	LLC tumour growth [1]	myeloid cell arrest in tumours in vivo [2]	adhesion, ligand binding and integrin conformational changes ([3]; chemokine-stimulated myeloid cells)	IC50 ([3]; stimulated by IL-1β or SDF-1α, read-out: IC50, myeloid cell adhesion)
O=C1NC(=O)/C(=C\c2ccc3nccnc3c2)S1 [AS605240]	suppressed tumour growth at similar doses			
COC(=O)[C@H](CCSC)NC(=O)c1ccc(NC[C@@H](N)CS)cc1-c1ccccc1 [FTI]		suppressed myeloid cell arrest in tumours in vivo	blocked adhesion, ligand binding and integrin conformational changes	1000 nM
